Patent publication US12098148B2, “Therapeutic compounds” (C4X Discovery Limited, priority 2018, dated 2024)
Where two headings read alike, the source gives them in different places.

What was measured:
[1] = test system: NQO1 mRNA in BEAS-2B cells; experiment: Beas2B NQO1 mRNA cell based assay; parameters: species or system human; conditions: 24 h compound treatment, increase in NQO1 mRNA vs vehicle (0.1% DMSO), read-out: EC50
Procedure, shortened: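 Relative NQO1 transcript level derived by ΔΔCT with human β-actin as internal control, using direct-lysate one-step RT-qPCR. Cells were BEAS-2B, plated overnight then treated with compound for 24 h.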

[2] = target: T1, human KEAP1 (N-term, residues 321-609) (Homo sapiens, UniProt Q14145);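 also: fluorescence polarization competition assay of Kelch domain binding to NRF2, 12-point 1:3 dilution series from 10 µM, read after 1 h at room temperature, floor 10 nM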
T1 sequence (Q14145 321-609): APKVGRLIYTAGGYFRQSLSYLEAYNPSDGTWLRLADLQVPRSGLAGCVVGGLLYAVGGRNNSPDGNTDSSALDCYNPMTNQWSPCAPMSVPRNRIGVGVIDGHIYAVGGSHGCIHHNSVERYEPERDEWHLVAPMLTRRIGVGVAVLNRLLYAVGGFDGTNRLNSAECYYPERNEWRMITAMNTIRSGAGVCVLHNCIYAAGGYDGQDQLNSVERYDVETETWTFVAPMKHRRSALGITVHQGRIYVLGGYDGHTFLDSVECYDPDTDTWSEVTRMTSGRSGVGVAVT

[3] = target: T1, human KEAP1 (N-term, residues 321-609); experiment: biochemical

IC50 [2] [nM]	IC50 [3] [nM]	Molecule	EC50 [1] [nM]	EC50 ([1]; Homo sapiens, BEAS-2B, 24 h) [nM]
7.7	–	(1S,2R)-2-((S)- 8-((1,5-bis (difluoromethyl)- 1H-1,2,3-triazol-4-yl) methoxy)-5-chloro-1- ((2-oxopyrrolidin-1- yl)methyl)-1,2,3,4- tetrahydroisoquinoline- 2-carbonyl)-1- methylcyclohexane- 1-carboxylic acid [Example 193]	1.8	–
5.7	–	(1S,2R)-2-((S)-8- ((2,5-bis (difluoromethyl)-2H- 1,2,3-triazol-4-yl) methoxy)-5-chloro-1 ((2-oxopyrrolidin-1- yl)methyl)-1,2,3,4- tetrahydroisoquinoline- 2-carbonyl)-1- methylcyclohexane-1- carboxylic acid [Example 139]	140	–
–	150	Cn1nnc(COc2ccc(Cl)c3c2[C@@H](CN2CCCC2=O)N(C(=O)[C@H]2CCC[C@H]2C(=O)O)CC3)c1C(F)F [Example 87, (1R,2S)-2-((S)-5-Chloro-8-((5-(difluoromethyl)-1-methyl-1H-1,2,3-triazol-4-yl)methoxy)-1-((2-oxopyrrolidin-1-yl)methyl)-1,2,3,4-tetrahydroisoquinoline-2-carbonyl)cyclopentane-1-carboxylic acid]	–	300
–	9.7	C[C@H]1CCN(C[C@@H]2c3c(OCc4nnn(C)c4C(F)F)ccc(Cl)c3CCN2C(=O)[C@@H]2CCCC[C@]2(C)C(=O)O)C1=O [Example 115, (1S,2R)-2-((1S)-5-Chloro-8-((5-(difluoromethyl)-1-methyl-1H-1,2,3-triazol-4-yl)methoxy)-1-(((S)-3-methyl-2-oxopyrrolidin-1-yl)methyl)-1,2,3,4-tetrahydroisoquinoline-2-carbonyl)-1-methylcyclohexane-1-carboxylic acid]	–	4.2
–	9.7	CC(C)n1cc(COc2cccc3c2[C@@H](CN2Cc4ccccc4C2=O)N(C(=O)[C@@H]2CCCC[C@@H]2C(=O)O)CC3)nn1 [Example 17, (1S,2R)-2-((S)-8-((1-Isopropyl-1H-1,2,3-triazol-4-yl)methoxy)-1-((1-oxoisoindolin-2-yl)methyl)-1,2,3,4-tetrahydroisoquinoline-2-carbonyl)cyclohexane-1-carboxylic acid]	–	110
–	7.9	C[C@@H]1CCC(=O)N1C[C@@H]1c2c(OCc3nnn(C)c3C(F)F)ccc(Cl)c2CCN1C(=O)[C@@H]1CCCC[C@]1(C)C(=O)O [Example 194, (1S,2R)-2-((S)-5-chloro-8-((5-(difluoromethyl)-1-methyl-1H-1,2,3-triazol-4-yl)methoxy)-1-(((R)-2-methyl-5-oxopyrrolidin-1-yl)methyl)-1,2,3,4-tetrahydroisoquinoline-2-carbonyl)-1-methylcyclohexane-1-carboxylic acid]	–	12
–	6.8	Cn1nnc(COc2ccc(Cl)c3c2[C@@H](CN2CC4(CC4)CC2=O)N(C(=O)[C@@H]2C[C@@H](F)CC[C@]2(C)C(=O)O)CC3)c1C(F)F [Example 218, (1S,2R,4S)-2-((S)-5-chloro-8-((5-(difluoromethyl)-1-methyl-1H-1,2,3-triazol-4-yl)methoxy)-1-((6-oxo-5-azaspiro[2.4]heptan-5-yl)methyl)-1,2,3,4-tetrahydroisoquinoline-2-carbonyl)-4-fluoro-1-methylcyclohexane-1-carboxylic acid]	–	0.98
–	5.2	Cn1nnc(COc2ccc(Br)c3c2[C@@H](CN2CC4(CC4)CC2=O)N(C(=O)[C@@H]2CCCC[C@]2(C)C(=O)O)CC3)c1C(F)F [Example 198, (1S,2R)-2-((S)-5-bromo-8-((5-(difluoromethyl)-1-methyl-1H-1,2,3-triazol-4-yl)methoxy)-1-((6-oxo-5-azaspiro [2.4]heptan-5-yl)methyl)-1,2,3,4-tetrahydroisoquinoline-2-carbonyl)-1-methylcyclohexane-1-carboxylic acid]	–	0.24
–	6.3	Cc1conc1COc1ccc(Cl)c2c1[C@@H](CN1CCCC1=O)N(C(=O)[C@@H]1CCCC[C@]1(C)C(=O)O)CC2 [Example 137, (1S,2R)-2-((S)-5-chloro-8-((4-methylisoxazol-3-yl)methoxy)-1-((2-oxopyrrolidin-1-yl)methyl)-1,2,3,4-tetrahydroisoquinoline-2-carbonyl)-1-methylcyclohexane-1-carboxylic acid]	–	6.7
–	5	Cn1nnc(COc2ccc(Cl)c3c2[C@@H](CN2CC4(CC4)CC2=O)N(C(=O)[C@@H]2CCCO[C@@H]2C(=O)O)CC3)c1C(F)F [Example 226, (2S,3R)-3-((S)-5-chloro-8-((5-(difluoromethyl)-1-methyl-1H-1,2,3-triazol-4-yl)methoxy)-1-((6-oxo-5-azaspiro[2.4]heptan-5-yl)methyl)-1,2,3,4-tetrahydroisoquinoline-2-carbonyl)tetrahydro-2H-pyran-2-carboxylic acid]	–	14
–	6.3	CC(C)n1nnc(COc2ccc(Cl)c3c2[C@@H](CN2CCCC2=O)N(C(=O)[C@@H]2CCCC[C@]2(C)C(=O)O)CC3)c1C(F)F [Example 121, (1S,2R)-2-((S)-5-chloro-8-((5-(difluoromethyl)-1-isopropyl-1H-1,2,3-triazol-4-yl)methoxy)-1-((2-oxopyrrolidin-1-yl)methyl)-1,2,3,4-tetrahydroisoquinoline-2-carbonyl)-1-methylcyclohexane-1-carboxylic acid]	–	11
–	4.8	C[C@H](CC(=O)O)C(=O)N1CCc2c(Cl)ccc(OCc3noc4ccccc34)c2[C@H]1CN1CCCC1=O [Example 80, (R)-4-((S)-8-(Benzo[d]isoxazol-3-ylmethoxy)-5-chloro-1-((2-oxopyrrolidin-1-yl)methyl)-3,4-dihydroisoquinolin-2(1H)-yl)-3-methyl-4-oxobutanoic acid]	–	110
–	6.5	CC(C)n1cc(COc2ccc(Br)c3c2[C@@H](CN2C[C@H](C)CC2=O)N(C(=O)[C@@H]2CCCC[C@@H]2C(=O)O)CC3)nn1 [Example 75, (1S,2R)-2-((S)-5-Bromo-8-((1-isopropyl-1H-1,2,3-triazol-4-yl)methoxy)-1-(((R)-4-methyl-2-oxopyrrolidin-1-yl)methyl)-1,2,3,4-tetrahydroisoquinoline-2-carbonyl) cyclohexane-1-carboxylic acid]	–	8.3
–	5.6	CC(=O)N1CC[C@H](Oc2cccc3c2[C@@H](CN2C(=O)c4ccccc4C2=O)N(C(=O)[C@@H]2CCCC[C@@H]2C(=O)O)CC3)C1 [Example 3, (1S,2R)-2-((S)-8-(((S)-1-Acetylpyrrolidin-3-yl)oxy)-1-((1,3-dioxoiso-indolin-2-yl)methyl)-1,2,3,4-tetrahydroisoquinoline-2-carbonyl)cyclohexane-1-carboxylic acid]	–	120
–	14	Cn1cnnc1COc1ccc(Cl)c2c1[C@@H](CN1CC3(CC3)CC1=O)N(C(=O)[C@@H]1CCCC[C@]1(C)C(=O)O)CC2 [Example 175, (1S,2R)-2-((S)-5-chloro-8-((4-methyl-4H-1,2,4-triazol-3-yl)methoxy)-1-((6-oxo-5-azaspiro [2.4]heptan-5-yl)methyl)-1,2,3,4-tetrahydroisoquinoline-2-carbonyl)-1-methylcyclohexane-1-carboxylic acid]	–	35
–	5.4	C[C@]1(C(=O)O)CCCC[C@H]1C(=O)N1CCc2c(Cl)ccc(OCc3nnc4n3CCC4)c2[C@H]1CN1CC2(CC2)CC1=O [Example 183, (1S,2R)-2-((S)-5-chloro-8-((6,7-dihydro-5H-pyrrolo[2,1-c][1,2,4]triazol-3-yl)methoxy)-1-((6-oxo-5-azaspiro [2.4]heptan-5-yl)methyl)-1,2,3,4-tetrahydroisoquinoline-2-carbonyl)-1-methylcyclohexane-1-carboxylic acid]	–	5.8
–	4.2	O=C(O)[C@H]1CCCC[C@H]1C(=O)N1CCc2c(Br)ccc(OCc3nnc4n3CCCC4)c2[C@H]1CN1Cc2ccccc2C1=O [Example 44, (1S,2R)-2-((S)-5-bromo-1-((1-oxoisoindolin-2-yl)methyl)-8-((5,6,7,8-tetrahydro-[1,2,4]triazolo[4,3-a]pyridin-3-yl)methoxy)-1,2,3,4-tetrahydroisoquinoline-2-carbonyl)cyclohexane-1-carboxylic acid]	–	10
–	6.9	C[C@]1(C(=O)O)CCCC[C@H]1C(=O)N1CCc2c(Cl)ccc(OCc3ncsc3C(F)F)c2[C@H]1CN1CC2(CC2)CC1=O [Example 204, (1S,2R)-2-((S)-5-chloro-8-((5-(difluoromethyl)thiazol-4-yl)methoxy)-1-((6-oxo-5-azaspiro[2.4]heptan-5-yl)methyl)-1,2,3,4-tetrahydroisoquinoline-2-carbonyl)-1-methylcyclohexane-1-carboxylic acid]	–	13
–	7.2	O=C(O)[C@H]1CCCC[C@H]1C(=O)N1CCc2c(Cl)ccc(OCc3noc4ncccc34)c2[C@H]1CN1CCCC1=O [Example 93, (1S,2R)-2-((S)-5-Chloro-8-(isoxazolo[5,4-b]pyridin-3-ylmethoxy)-1-((2-oxopyrrolidin-1-yl)methyl)-1,2,3,4-tetrahydroisoquinoline-2-carbonyl) cyclohexane-1-carboxylic acid]	–	15
–	2.9	Cn1c(COc2ccc(Cl)c3c2[C@@H](CN2CC4(CC4)CC2=O)N(C(=O)[C@@H]2CCCC[C@]2(C)C(=O)O)CC3)nnc1C1CC1 [Example 184, (1S,2R)-2-((S)-5-chloro-8-((5-cyclopropyl-4-methyl-4H-1,2,4-triazol-3-yl)methoxy)-1-((6-oxo-5-azaspiro[2.4]heptan-5-yl)methyl)-1,2,3,4-tetrahydroisoquinoline-2-carbonyl)-1-methylcyclohexane-1-carboxylic acid]	–	5.6
